Reference: patent US9592223B2, “Small molecule inhibitors of MALT1” (Cornell University, priority 2012, dated 2017)

Assays:
[1] = Toxicity 1: increasing daily IP doses over 10 days; assay type: in vivo, C57BL/6 mice; details: daily IP 0.05 to 25 mg/kg over 10 days, cumulative 51.1 mg/kg
Description: Brain, heart, lung, liver, kidney, bowel, spleen, thymus and bone marrow tissues were examined. […] Myeloid to erythroid ratio was 4-5:1. Megakaryocytes were normal in number and distribution. There was no fibrosis nor increased number of blasts or lymphocytes. Complete peripheral blood counts, biochemistry and liver function tests were normal (Table 2).

[2] = target: T1, LZ-MALT1 (MALT1 (340-789) fused with a leucine zipper dimerization motif) (Homo sapiens, UniProt Q9UDY8); test: LZ-MALT1 fluorescence assay (Ac-LRSR-AMC cleavage), screening and concentration response; assay type: biochemical; details: concentration response assay, 0.122 μM to 62.5 μM; read-out: IC50 (biochemical activity, in vitro)
T1 construct: His tag (N); made in house; host or cells: E. coli
T1 sequence (Q9UDY8 with tags, fused parts or gaps limits assumed): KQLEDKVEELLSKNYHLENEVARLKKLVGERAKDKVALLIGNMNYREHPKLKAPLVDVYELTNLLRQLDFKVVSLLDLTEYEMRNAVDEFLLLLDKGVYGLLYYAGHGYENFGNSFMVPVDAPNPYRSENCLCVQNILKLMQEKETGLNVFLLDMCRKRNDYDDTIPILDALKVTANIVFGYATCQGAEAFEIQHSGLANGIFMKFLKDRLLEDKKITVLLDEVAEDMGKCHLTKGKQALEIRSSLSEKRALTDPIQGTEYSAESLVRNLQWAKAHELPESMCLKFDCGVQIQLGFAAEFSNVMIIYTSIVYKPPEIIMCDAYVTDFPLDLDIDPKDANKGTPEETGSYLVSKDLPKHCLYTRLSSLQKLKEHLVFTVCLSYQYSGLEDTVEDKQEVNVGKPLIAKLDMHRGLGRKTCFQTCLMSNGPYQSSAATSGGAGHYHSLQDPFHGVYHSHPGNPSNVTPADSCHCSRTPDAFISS
Description: We reasoned that MALT1 small-molecule inhibitors might be useful chemical tools for studying MALT1 biology and treating MALT1 addicted tumors. However, full-length MALT1 and its paracaspase domain (amino acids 340-789) are naturally present in physiological solutions as a monomer, which has very low proteolytic activity. Caspases generally must homodimerize for maximal catalytic activity (Pop et al., 2006; Walker et al., 1994; Yin et al., 2006) and accordingly the recently reported structures of the paracaspase domain of MALT1 in complex with a peptide inhibitor are dimeric (Wiesmann et al., 2012; Yu et al., 2011). […]
Ac-LRSR-AMC was used as substrate and reactions were measured with excitation/emission wavelengths of 360/465 nm. […] The final percent inhibition was calculated with the formula: {[fluorescencetest compound(T2-T1)−fluorescenceneg ctrl(T2−T1)]/[fluorescencepos ctrl(T2−T1)−fluorescenceneg ctrl(T2−T1)]}×100. […]
The screening consisted of a 20 μl reaction in 384-well black plates (Greiner Bio One, Wemmel, Belgium, catalogue #784076) with 100 nM LZ-MALT1, 200 μM Ac-LRSR-AMC, and 12.5 μM test compound in buffer A (20 mM HEPES pH 7.5, 10 mM KCl, 1.5 mM MgCl2, 1 mM EDTA, 1 mM DTT, 0.01% Triton X-100). The reactions were measured with excitation/emission wavelengths of 360/465 nm using Envision Multilabel Reader (Perkin-Elmer, Waltham, Mass.). […]

## COCCOc1nc(-c2ccc(Cl)c(Cl)c2)n(-c2ccc(NC(=O)CCl)cc2)n1 [MI-2]
[1]
  physical indicators of sickness: no evidence of lethargy, weight loss
[2]
  IC50: ~5 µM
